From patent US20240199676A1, “ANTIVIRAL COMPOUNDS AND METHODS OF MAKING AND USING THE SAME” (Gilead Sciences, Inc., priority 2022, published 2024) come the findings set out here.

A short description of data set [1]: GI S9 stability (Ex. Z), rat intestinal S9. The class given is in vitro ADME. The note with it: pooled intestinal S9 fractions; rat intestinal S9, 1.0 mg/mL protein, 2 μM substrate, pH 7.4; read-out: GIS9 Rat T½ (per Ex. Z). Here is the method: Example Z: GI S9 stability data:
Stock solutions of test compounds in dimethyl sulfoxide (DMSO) having a final concentration of 10 mM were prepared and used in all experiments. Sekisui XenoTech (Kansas City, KS) provided pooled intestinal S9 fractions. All other chemicals were purchased from Sigma-Aldrich (St. Louis, MO) or VWR (West Chester, PA). Internal Standard/Quench (IS/Q) used to stop reactions was 100 nM labetalol in (by volume) methanol (10%) and acetonitrile (90%).
Stability in Intestinal S9 Fractions: Duplicate aliquots of test compound or positive control substrate were added to S9 stock diluted with phosphate buffered saline (137 mM NaCl, 2.7 mM KCl, 10 mM phosphate buffer), pH 7.4, to obtain a protein concentration of 1.0 mg/mL. The metabolic reactions were initiated by the addition of the substrates to the S9 reaction mixture to a final concentration of 2 μM. At 0, 10, 20, 30, 60 and 120 min, 25 μL aliquots of the reaction mixture were transferred to plates containing 225 μl of IS/Q solution. After quenching, the plates were centrifuged at 3000×g for 30 minutes. 150 μL aliquots of each supernatant were dried down then reconstituted with 300 μL water. Aliquots (10 μL) of the prepared samples were analyzed on a Thermo Q-Exactive mass spectrometer as described below.
Liquid Chromatography—Mass Spectrometry: Quantification of test compounds and control substrate was performed by analyte/internal standard peak area ratio (PAR) values measured on a Thermo Q-Exactive mass spectrometer coupled to a Dionex UltiMate 3000 HPLC with a Leap Technologies HTC PAL autosampler. The column used for analysis was a Waters Acquity BEH C18 (1.7 μm particle size, 2.1×50 mm). Mobile phase A consisted of 0.1% (v/v) formic acid in water. Mobile phase B consisted of 0.1% (v/v) formic acid in acetonitrile. Elution of analytes was achieved by a series of linear gradients varying the proportions of A and B. The mass spectrometer was calibrated on a weekly basis and mass tolerance of 5 ppm was used.
Metabolic stabilities in S9 fractions were determined by measuring the rates of disappearance of test compound and positive control substrate.
Data (% of substrate remaining) were plotted on a semi-log scale and fitted using an exponential decline model:
Where Ct—% of substrate remaining at time=t; C0—% of substrate remaining at time=0; t—time; T½—half-life The Half-life (T½) is determined by the following equation: […]
Assuming a first-order reaction, the slope (k) is extrapolated from the aforementioned plotted data.

Data set [2] concerns Human Rhinovirus 14 (HRV14) in H1-HeLa cells. Put plainly: H1-HeLa HRV-CTG 384-well Assay (Ex. Y), HRV14. The class given is cell-based. The note with it: Rhinovirus B, 96 h; H1-HeLa cells, HRV14 MOI 1.0, 4 days, Celltiter-Glo; read-out: EC50 H1-HeLa_HRV14_HRV-CTG 384-well Assay (per Ex Y). The source says:
(§1) Example Y: H1-HeLa HRV-CTG 384-well Assay
(§2) H1-Hela cell line (ATCC, Manassas, VA, Cat #CRL-1958) was maintained in Dulbecco's […] (DMEM) (Corning, New York, NY, Cat #15-018CM) supplemented with 10% fetal bovine serum (FBS) (Hyclone, Logan, UT, Cat #SH30071-03), and 1× Penicillin-Streptomycin-L-Glutamine (Corning, New York, NY, Cat #30-009-CI). Cells were passaged 2 times per week to maintain sub-confluent densities and were used for experiments at passage 5-30. The Human Rhinovirus 1B (HRV1B) (ATCC, Manassas, VA, Cat #VR-1645) , Human Rhinovirus 14 (HRV14) (ATCC, Manassas, VA, Cat #VR-284), and Human Rhinovirus 16 (HRV16) (ATCC, Manassas, VA, Cat #BR-283) was obtained through ATCC. Viral infection was monitored by determining viability of H1-HeLa cells as described below.
(§3) Test molecules are prepared in 100% DMSO in 384-well polypropylene plates (Greiner, Monroe, NC, Cat #784201) with 8 compounds per plate in grouped replicates of 4 at 10 serially diluted concentrations (1:3). The serially diluted compounds were transferred to low dead volume Echo plates (Labcyte, Sunnyvale, CA, Cat #LP-0200).
(§4) The test compounds were spotted to 384-well assay plates (Greiner, Monroe, NC, Cat#781091) at 200 nL per well using an Echo acoustic dispenser (Labcyte, Sunnyvale, CA). H1-HeLa cells were harvested and suspended in DMEM (supplemented with 2% FBS and 1× Penicillin-Streptomycin-L-Glutamine) and seeded to the pre-spotted assay plates at 5,000 cells per well in 30 μL. HRV1B, HRV14, and HRV16 was diluted in DMEM (supplemented with 2% FBS and 1× Penicillin-Streptomycin-L-Glutamine) at 97.1 million Infectious Units (IU) per mL, 151 million IU per mL and 221 million IU per mL respectively. 10 μL of virus per well was added to the assay plates containing cells and compounds, for an MOI of 0.5, 1.0, and 0.25 respectively. The assay plates were incubated for 4 days at 37° C. and 5% CO2. At the end of incubation, Celltiter-Glo (Promega, Madison, WI, Cat #(Ga7573) was prepared. The assay plates and Celltiter-Glo reagent were equilibrated to room temperature for at least 15 minutes. 40 μL per well of Celltiter-Glo reagent was added and the plates were incubated at room temperature for 15 minutes before reading the luminescence signal on an EnVision multimode plate reader (Perkin Elmer, Waltham, MA). Rupintrivir was used as positive control and DMSO was used as negative control. Values were normalized to the positive and negative controls (as 0% and 100% replication, respectively) and data was fitted using non-linear regression analysis by Gilead's dose response tool. The EC50 value for each compound was defined as the concentration reducing viral replication by 50%.
(In general: ATP-based viability assays read luminescence as a measure of living cells.)

For data set [3], the system named is Human Rhinovirus 16 (HRV16) in H1-HeLa cells. Put plainly: H1-HeLa HRV-CTG 384-well Assay (Ex. Y), HRV16. It is filed as cell-based. The note with it: Rhinovirus A, 96 h; H1-HeLa cells, HRV16 MOI 0.25, 4 days, Celltiter-Glo; read-out: EC50 H1-HeLa_HRV16_HRV-CTG 384-well Assay (per Ex. Y).
Text: as §1, §2, §3, §4

In data set [4] the test system is Human Rhinovirus 1B (HRV1B) in H1-HeLa cells. Put plainly: H1-HeLa HRV-CTG 384-well Assay (Ex. Y), HRV1B. The note with it: Rhinovirus A, 96 h; H1-HeLa cells, HRV1B MOI 0.5, 4 days, Celltiter-Glo; read-out: EC50 H1-HeLa_HRV1B_HRV-CTG 384-well Assay (per Ex. Y). The class given is cell-based.
Text: as §1, §2, §3, §4

With `N#C[C@]1(COC(=O)C2CCCCC2)O[C@@H](c2ccc3c(N)ncnn23)[C@H](O)[C@@H]1O` [Compound 19, ((2R,3S,4R,5S)-5-(4-aminopyrrolo[2,1-f][1,2,4]triazin-7-yl)-2-cyano-3,4-dihydroxytetrahydrofuran-2-yl)methyl cyclohexanecarboxylate], the half-life at 2 μM in data set [1] turned out to be 4 min. Moreover, the EC50 in data set [2] turned out to be 6.84 µM; in data set [3], 9.23 µM; in data set [4], 4.11 µM.
The corresponding values for `CC(C)(C)CCC(=O)OC[C@@]1(C#N)O[C@@H](c2ccc3c(N)ncnn23)[C@H](O)[C@@H]1O` [Compound 36, ((2R,3S,4R,5S)-5-(4-aminopyrrolo[2,1-f][1,2,4]triazin-7-yl)-2-cyano-3,4-dihydroxytetrahydrofuran-2-yl)methyl 4,4-dimethylpentanoate] are 3 min, 6.51 µM, 8.03 µM and 3.1 µM.
Consider `CC1(C(=O)OC[C@@]2(C#N)O[C@@H](c3ccc4c(N)ncnn34)[C@H](O)[C@@H]2O)CCC1` [Compound 24, ((2R,3S,4R,5S)-5-(4-aminopyrrolo[2,1-f][1,2,4]triazin-7-yl)-2-cyano-3,4-dihydroxytetrahydrofuran-2-yl)methyl 1-methylcyclobutane-1-carboxylate], for which the EC50 in data set [2] is 6.34 µM; in data set [3], 8.9 µM; in data set [4] it was 3.43 µM.
Consider `CC(=O)OC[C@@]1(C#N)O[C@@H](c2ccc3c(N)ncnn23)[C@H](O)[C@@H]1O` [Compound 4, ((2R,3S,4R,5S)-5-(4-aminopyrrolo[2,1-f][1,2,4]triazin-7-yl)-2-cyano-3,4-dihydroxytetrahydrofuran-2-yl)methyl acetate], for which, in data set [1], the half-life at 2 μM is 9 min. For the same compound, the EC50 was determined as 4.61 µM in data set [2], 10.1 µM in data set [3] and 6.38 µM in data set [4].
Regarding `CC(C)(C)CC(=O)OC[C@@]1(C#N)O[C@@H](c2ccc3c(N)ncnn23)[C@H](O)[C@@H]1O` [Compound 13, ((2R,3S,4R,5S)-5-(4-aminopyrrolo[2,1-f][1,2,4]triazin-7-yl)-2-cyano-3,4-dihydroxytetrahydrofuran-2-yl)methyl 3,3-dimethylbutanoate], in data set [1], the half-life at 2 μM stood at 185 min. For the same compound, the EC50 in data set [2], in data set [3] and in data set [4] was 50 µM throughout.
As for `CC(C)C(=O)O[C@H]1[C@H](c2ccc3c(N)ncnn23)O[C@](C#N)(COC(=O)c2ccccc2)[C@H]1O` [Compound 22, ((2R,3S,4R,5S)-5-(4-aminopyrrolo[2,1-f][1,2,4]triazin-7-yl)-2-cyano-3-hydroxy-4-(isobutyryloxy)tetrahydrofuran-2-yl)methyl benzoate], the EC50 in data set [2] was determined as 15.9 µM; in data set [3], 33.1 µM; in data set [4], 12.8 µM.
In the case of `[H]/N=c1/c2ccc([C@@H]3O[C@](C#N)(CO)[C@@H](O)[C@H]3O)n2ncn1COC(=O)C(C)C` [Compound 34, (7-((2S,3R,4S,5R)-5-cyano-3,4-dihydroxy-5-(hydroxymethyl)tetrahydrofuran-2-yl)-4-iminopyrrolo[2,1-f][1,2,4]triazin-3(4H)-yl)methyl isobutyrate], the EC50 in data set [2] worked out at 50 µM; in data set [3], 50 µM; in data set [4], 28.7 µM.
On to `CC[C@@H](C)C(=O)OC[C@@]1(C#N)O[C@@H](c2ccc3c(N)ncnn23)[C@H](O)[C@@H]1O` [Compound 37, ((2R,3S,4R,5S)-5-(4-aminopyrrolo[2,1-f][1,2,4]triazin-7-yl)-2-cyano-3,4-dihydroxytetrahydrofuran-2-yl)methyl (R)-2-methylbutanoate], for which the figures for the EC50 in data set [2], in data set [3] and in data set [4] were 11.9 µM, 9.78 µM and 5.71 µM, respectively.
In the case of `CC(C)(C)CC(=O)Nc1ncnn2c([C@@H]3O[C@](C#N)(COC(=O)CC(C)(C)C)[C@@H](O)[C@H]3O)ccc12` [Compound 26, ((2R,3S,4R,5S)-2-cyano-5-(4-(3,3-dimethylbutanamido)pyrrolo[2,1-f][1,2,4]triazin-7-yl)-3,4-dihydroxytetrahydrofuran-2-yl)methyl 3,3-dimethylbutanoate], the EC50 in data set [2], in data set [3] and in data set [4] was 50 µM throughout.
With `CCC(C)(C)CC(=O)OC[C@@]1(C#N)O[C@@H](c2ccc3c(N)ncnn23)[C@H](O)[C@@H]1O` [Compound 27, ((2R,3S,4R,5S)-5-(4-aminopyrrolo[2,1-f][1,2,4]triazin-7-yl)-2-cyano-3,4-dihydroxytetrahydrofuran-2-yl)methyl 3,3-dimethylpentanoate], the 50% effective concentration (EC50) in data set [2], in data set [3] and in data set [4] was 50 µM each time.
On to `CC(C)(CF)C(=O)OC[C@@]1(C#N)O[C@@H](c2ccc3c(N)ncnn23)[C@H](O)[C@@H]1O` [Compound 29, ((2R,3S,4R,5S)-5-(4-aminopyrrolo[2,1-f][1,2,4]triazin-7-yl)-2-cyano-3,4-dihydroxytetrahydrofuran-2-yl)methyl 3-fluoro-2,2-dimethylpropanoate], for which the EC50 is 16.9 µM in data set [2], 22.7 µM in data set [3] and 9.37 µM in data set [4].
`CC(=O)OC[C@@]1(C#N)O[C@@H](c2ccc3c(NC(=O)C(C)C)ncnn23)[C@H](O)[C@@H]1O` [Compound 23, ((2R,3S,4R,5S)-2-cyano-3,4-dihydroxy-5-(4-isobutyramidopyrrolo[2,1-f][1,2,4]triazin-7-yl)tetrahydrofuran-2-yl)methyl acetate]: the EC50 in data set [2] is 49.8 µM; in data set [3], 50 µM; in data set [4] it was 33.5 µM.

The term EC50 denotes the concentration giving half of the maximal effect.
